Source: patent US20130165440A1, “JAK1 Inhibitors” (EXELIXIS, INC., priority 2010, published 2013)

Target: T1, recombinant JAK1 enzyme (Homo sapiens, UniProt P23458)
T1 construct: 8 nM of recombinant JAK1 enzyme (Insect expressed: V866-K1155); host or cells: insect cells
Experiment: JAK1 Kinase Assay (luciferase-luciferin-coupled chemiluminescence, ATP consumption)
Assay type: biochemical
Settings: 8 nM JAK1 (V866-K1155), 30 μM IRS-1 peptide (Y608), 2 μM ATP, 2 hours ambient temperature, KinaseGlo; read-out: JAK1 IRS-1tide Chemilum (IC50)
Protocol: JAK1 Kinase Assay Used to Test Compounds
JAK1 Kinase activity was measured as the percent of ATP consumed following the kinase reaction using luciferase-luciferin-coupled chemiluminescence. The reaction was conducted in white medium binding 384-well microtiter plates. The kinase reaction were initiated by combining test compounds, 8 nM of recombinant JAK1 enzyme (Insect expressed: V866-K1155), 30 μM of IRS-1 peptide (Y608) and 2 μM ATP in buffer containing 20 mM Hepes (pH 7.5), 10 mM MgCl2, 0.01% Brij, 5% glycerol and 1 mM DTT in a 20 μL volume. The reaction mixture was incubated at ambient temperature for 2 hours. Following the kinase reaction, a 20 μL aliquot of KinaseGlo was added to stop the reaction and measure remaining ATP via detection of chemiluminescence using the Envison reader. Total ATP consumption was limited to 25-60%.

T1 sequence (P23458 865-1154 limits assumed): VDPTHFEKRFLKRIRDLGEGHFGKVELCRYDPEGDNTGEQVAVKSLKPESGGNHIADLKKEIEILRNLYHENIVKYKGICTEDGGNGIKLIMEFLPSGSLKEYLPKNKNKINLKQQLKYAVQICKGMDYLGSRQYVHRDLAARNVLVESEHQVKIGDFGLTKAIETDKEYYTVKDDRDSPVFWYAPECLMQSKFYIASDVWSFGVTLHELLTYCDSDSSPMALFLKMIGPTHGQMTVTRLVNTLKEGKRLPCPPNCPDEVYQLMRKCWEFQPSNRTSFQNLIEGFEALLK

Row | IC50 | Compound
1 | 0.5 to 1 µM | Cc1cc(-c2ccc(-c3nnc(Nc4cc(C(F)(F)F)cc(C(F)(F)F)c4)c4ccccc34)cc2)n[nH]1 [Compound 61, N-[3,5-bis(trifluoromethyl)phenyl]-4-[4-(5-methyl-1H-pyrazol-3-yl)phenyl]phthalazin-1-amine]
2 | 1 to 2 µM | COC(=O)c1ccc(-c2nnc(Nc3cc(N4CCN(C)CC4)cc(C(F)(F)F)c3)c3ccccc23)cc1 [Compound 20, methyl 4-(4-{[3-(4-methylpiperazin-1-yl)-5-(trifluoromethyl)phenyl]amino}phthalazin-1-yl)benzoate]
